Results: paper PMC5967867, “An NMDAR positive and negative allosteric modulator series share a binding site and are interconverted by methyl groups” (eLife, 2018)
“And” between values parts separate entries of the source, which are not always exact repeats. Equal values may be shown once. Read-outs that look alike come from different tables or passages of the source.

What was measured:
Type in all cases: cell-based
GluN1/GluN2A NMDARs = GluN1/GluN2A NMDARs (Rattus norvegicus, UniProt P35439+Q00959); assay: Two-electrode voltage-clamp recordings, Xenopus laevis oocytes expressing GluN1/GluN2A; conditions: for IC50: glutamate/glycine 100/30 µM; for EC50: read-out: EC50 (µM) [conf. int.]; for Emax: read-out: Maximal Degree of Modulation (% of control)
Procedure: (§1) cDNAs for rat wild type NMDAR subunits GluN1-1a (GenBank U11418, U08261; hereafter GluN1 or GluN1a), GluN1-1b (U08263, hereafter GluN1b), GluN2A (D13211), GluN2B (U11419), GluN2C (M91563), and GluN2D (L31611, modified as described in [Monyer et al., 1994]) were provided by Drs. S. Heinemann (Salk Institute), S. Nakanishi (Kyoto University), and P. Seeburg (University of Heidelberg). Site-directed mutagenesis was conducted using the QuikChange kit (Agilent Technologies, Santa Clara, CA) following the recommended protocol. DNA sequencing was used to verify all mutations. The amino acid numbering system started with the initiating methionine as residue number one. For expression in Xenopus laevis oocytes, cDNA constructs were linearized by restriction enzymes, and subsequently used to synthesize in vitro cRNAs following the manufacturer’s protocol (mMessage mMachine, Ambion, ThermoFisher Scientific, Waltham, MA).
(§2) Xenopus laevis stage VI oocytes (Ecocyte Biosciences, Austin, TX) were injected as previously described ([Hansen et al., 2013]) 2–7 days prior to recording with cRNA encoding the NMDAR subunits and stored at 15°C in media containing (in mM) 88 NaCl, 2.4 NaHCO3, 1 KCl, 0.33 Ca(NO3)2, 0.41 CaCl2, 0.82 MgSO4, 5 Tris-HCl; pH was adjusted to 7.4 with NaOH and the solution supplemented with 1 U/mL penicillin, 0.1 mg/mL gentamicin sulfate, and 1 μg/mL streptomycin. Two-electrode voltage-clamp recordings were performed at room temperature (21–23°C) using different internal solutions for voltage and current electrodes (0.3 M and 3.0 M KCl, respectively). All extracellular solutions were made from a solution containing (in mM) 90 NaCl, 1 KCl, 10 HEPES, 0.5 BaCl2, 0.01 EDTA (pH 7.4 with NaOH). Experiments were performed using an eight port Modular Valve Positioner (Hamilton Company, Reno, NV) and controlled by custom software (Easy Oocyte, Emory University, Atlanta, GA)to exchange solutions. Oocyte currents were recorded at a holding potential of −40 mV using a two-electrode voltage-clamp amplifier (OC-725B or OC-725C, Warner Instruments, Hamden, CT). […] In MTSEA experiments, fresh MTSEA solutions (0.2 mM) were prepared and utilized in less than 30 min to limit compound degradation.
(§3) Measurements are given as mean ± SEM unless otherwise indicated. The number of replicate experiments used was chosen to ensure a power level of at least 0.80 when α = 0.05 and when detecting appropriate effect sizes. EC50 and IC50 values and confidence intervals reported were calculated by averaging the log(EC50) or log(IC50) value, determining confidence intervals for mean log(EC50) or log(IC50), and converting back to units of molarity. Statistical significance evaluations (α set to 0.05) were performed using a one-way ANOVA with Dunnett’s multiple comparison test, a paired t–test, or other appropriate tests as described.

GluN1/GluN2B NMDARs = GluN1/GluN2B NMDARs (Rattus norvegicus, UniProt P35439+Q00960); assay: Two-electrode voltage-clamp recordings, Xenopus laevis oocytes expressing GluN1/GluN2B; conditions: for EC50: read-out: EC50 (µM) [conf. int.]; for Emax: read-out: Maximal Degree of Modulation (% of control)
Procedure: as §1, §2, §3

GluN1/GluN2C NMDARs = GluN1/GluN2C NMDARs (Rattus norvegicus, UniProt P35439+Q00961); assay: Two-electrode voltage-clamp recordings, Xenopus laevis oocytes expressing GluN1/GluN2C; conditions: for Modulation by 10 µM (% of control): 10 µM modulator; for IC50: glutamate/glycine 100/30 µM; for EC50: read-out: EC50 (µM) [conf. int.]; for Emax: read-out: Maximal Degree of Modulation (% of control)
Procedure: as §1, §2, §3

GluN1/GluN2D NMDARs = GluN1/GluN2D NMDARs (Rattus norvegicus, UniProt P35439+Q62645); assay: Whole cell patch-clamp recordings, HEK293 cells expressing GluN1/GluN2D
Procedure: We studied NMDARs expressed in HEK293 cells to investigate the time course of modulator action. […] These modulators were tested on GluN1/GluN2A and GluN1/GluN2D to see whether there were differences in modulation given the distinct properties of these NMDAR subtypes. […] The time-course of modulator binding of EU1794-2, EU1794-4 and EU1794-27 was also determined for GluN1/GluN2A (Figure 4C,D).
as §1
HEK293 cells (CRL-1573, ATCC, Manassas, VA) were maintained in a tissue culture room solely reserved for their culturing and transfected using a CaPO4 protocol to express the diheteromeric NMDARs as previously described ([Hansen et al., 2013]). Cell lines were obtained directly from the supplier, were expanded, frozen and kept in liquid nitrogen in a dewar. Mycoplasma testing was not performed. cDNA ratios for transfection were 1:1:1 (GluN2D) or 1:1:5 (GluN2A) for GluN1:GluN2:GFP.

[1] = +EU1794-27 3 µM, read-out: EU1794-2 IC50 (µM) [conf. int.]
[2] = +EU1794-27 10 µM, read-out: EU1794-2 IC50 (µM) [conf. int.]
[3] = +EU1794-27 20 µM, read-out: EU1794-2 IC50 (µM) [conf. int.]
[4] = no second modulator (+EU1794-27 0 µM), read-out: IC50 (µM) [conf. int.]
[5] = saturating glutamate/glycine 100/30 µM, mean [95% CI], - = not fit, response at 30 µM differed by no more than 15% from control
[6] = saturating glutamate/glycine 100/30 µM, mean ± SEM
[7] = sub-saturating glutamate/glycine 0.6/0.2 µM

Chain of GluN1/GluN2D NMDARs (Q62645 28-1323, other chains not shown): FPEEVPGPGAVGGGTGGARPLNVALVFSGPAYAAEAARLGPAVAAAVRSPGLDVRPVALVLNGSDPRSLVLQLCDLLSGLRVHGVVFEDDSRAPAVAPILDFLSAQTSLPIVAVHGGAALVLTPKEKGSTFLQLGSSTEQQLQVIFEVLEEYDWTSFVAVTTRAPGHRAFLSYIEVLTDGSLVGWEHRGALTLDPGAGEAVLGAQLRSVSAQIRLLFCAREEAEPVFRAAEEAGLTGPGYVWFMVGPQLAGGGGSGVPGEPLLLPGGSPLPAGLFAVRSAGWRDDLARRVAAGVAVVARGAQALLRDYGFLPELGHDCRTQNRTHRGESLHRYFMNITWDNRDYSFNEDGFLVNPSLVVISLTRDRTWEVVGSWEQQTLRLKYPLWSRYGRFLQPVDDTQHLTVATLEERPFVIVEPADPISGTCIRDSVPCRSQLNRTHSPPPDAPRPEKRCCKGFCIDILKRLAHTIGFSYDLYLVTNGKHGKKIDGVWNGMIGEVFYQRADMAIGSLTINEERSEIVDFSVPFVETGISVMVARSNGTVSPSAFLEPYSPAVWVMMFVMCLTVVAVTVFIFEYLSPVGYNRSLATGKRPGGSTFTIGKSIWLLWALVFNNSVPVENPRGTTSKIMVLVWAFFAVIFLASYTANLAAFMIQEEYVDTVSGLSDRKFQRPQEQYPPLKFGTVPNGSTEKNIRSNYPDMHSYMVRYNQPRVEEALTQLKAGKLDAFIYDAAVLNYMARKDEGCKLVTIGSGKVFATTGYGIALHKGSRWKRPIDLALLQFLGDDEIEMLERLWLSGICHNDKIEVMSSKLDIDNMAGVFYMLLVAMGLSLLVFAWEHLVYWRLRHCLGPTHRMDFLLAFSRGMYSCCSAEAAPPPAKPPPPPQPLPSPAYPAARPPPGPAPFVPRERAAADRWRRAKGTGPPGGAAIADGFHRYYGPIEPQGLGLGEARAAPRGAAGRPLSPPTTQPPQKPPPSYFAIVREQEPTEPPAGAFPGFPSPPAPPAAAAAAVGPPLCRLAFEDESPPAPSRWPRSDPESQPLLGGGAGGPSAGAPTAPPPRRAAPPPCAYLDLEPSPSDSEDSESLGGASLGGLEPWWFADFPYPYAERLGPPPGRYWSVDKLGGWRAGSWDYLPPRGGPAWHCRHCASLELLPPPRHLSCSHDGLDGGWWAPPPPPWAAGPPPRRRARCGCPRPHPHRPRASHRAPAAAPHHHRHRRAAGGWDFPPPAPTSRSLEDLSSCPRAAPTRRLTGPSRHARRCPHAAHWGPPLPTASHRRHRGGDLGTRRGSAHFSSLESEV
Chain of GluN1/GluN2C NMDARs (Q00961 20-1237, other chains not shown): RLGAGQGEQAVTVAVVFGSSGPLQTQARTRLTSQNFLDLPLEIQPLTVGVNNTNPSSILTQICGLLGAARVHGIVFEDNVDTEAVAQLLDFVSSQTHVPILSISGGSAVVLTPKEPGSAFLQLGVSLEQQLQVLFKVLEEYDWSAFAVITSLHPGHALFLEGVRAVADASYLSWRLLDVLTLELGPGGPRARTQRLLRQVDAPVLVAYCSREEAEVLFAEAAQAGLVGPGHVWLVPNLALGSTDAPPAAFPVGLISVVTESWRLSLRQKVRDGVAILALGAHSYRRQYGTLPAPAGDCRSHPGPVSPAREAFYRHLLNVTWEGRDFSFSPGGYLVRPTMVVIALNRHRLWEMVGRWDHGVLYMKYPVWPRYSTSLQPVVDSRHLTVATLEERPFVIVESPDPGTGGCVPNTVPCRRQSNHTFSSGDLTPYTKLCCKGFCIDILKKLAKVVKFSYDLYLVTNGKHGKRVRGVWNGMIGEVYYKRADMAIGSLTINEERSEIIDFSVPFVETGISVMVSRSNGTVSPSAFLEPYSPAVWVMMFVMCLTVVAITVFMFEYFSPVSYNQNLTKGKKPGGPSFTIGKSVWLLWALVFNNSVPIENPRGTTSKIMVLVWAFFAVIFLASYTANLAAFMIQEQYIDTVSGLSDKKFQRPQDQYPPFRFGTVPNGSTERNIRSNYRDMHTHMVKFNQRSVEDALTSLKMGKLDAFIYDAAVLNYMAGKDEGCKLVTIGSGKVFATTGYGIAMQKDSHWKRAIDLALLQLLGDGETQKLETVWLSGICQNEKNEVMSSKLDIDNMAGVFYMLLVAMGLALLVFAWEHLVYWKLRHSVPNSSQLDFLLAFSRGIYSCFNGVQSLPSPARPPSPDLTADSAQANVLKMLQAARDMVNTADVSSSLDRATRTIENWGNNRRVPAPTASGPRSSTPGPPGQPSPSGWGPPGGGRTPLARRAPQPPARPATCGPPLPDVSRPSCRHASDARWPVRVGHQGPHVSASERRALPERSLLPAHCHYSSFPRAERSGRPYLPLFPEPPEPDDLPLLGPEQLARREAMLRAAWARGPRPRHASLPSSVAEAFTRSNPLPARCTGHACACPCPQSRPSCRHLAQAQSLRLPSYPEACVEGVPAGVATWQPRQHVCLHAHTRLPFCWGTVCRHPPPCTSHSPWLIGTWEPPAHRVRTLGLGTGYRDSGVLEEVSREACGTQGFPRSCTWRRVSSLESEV
Chain of GluN1/GluN2A NMDARs (Q00959 23-1464, other chains not shown): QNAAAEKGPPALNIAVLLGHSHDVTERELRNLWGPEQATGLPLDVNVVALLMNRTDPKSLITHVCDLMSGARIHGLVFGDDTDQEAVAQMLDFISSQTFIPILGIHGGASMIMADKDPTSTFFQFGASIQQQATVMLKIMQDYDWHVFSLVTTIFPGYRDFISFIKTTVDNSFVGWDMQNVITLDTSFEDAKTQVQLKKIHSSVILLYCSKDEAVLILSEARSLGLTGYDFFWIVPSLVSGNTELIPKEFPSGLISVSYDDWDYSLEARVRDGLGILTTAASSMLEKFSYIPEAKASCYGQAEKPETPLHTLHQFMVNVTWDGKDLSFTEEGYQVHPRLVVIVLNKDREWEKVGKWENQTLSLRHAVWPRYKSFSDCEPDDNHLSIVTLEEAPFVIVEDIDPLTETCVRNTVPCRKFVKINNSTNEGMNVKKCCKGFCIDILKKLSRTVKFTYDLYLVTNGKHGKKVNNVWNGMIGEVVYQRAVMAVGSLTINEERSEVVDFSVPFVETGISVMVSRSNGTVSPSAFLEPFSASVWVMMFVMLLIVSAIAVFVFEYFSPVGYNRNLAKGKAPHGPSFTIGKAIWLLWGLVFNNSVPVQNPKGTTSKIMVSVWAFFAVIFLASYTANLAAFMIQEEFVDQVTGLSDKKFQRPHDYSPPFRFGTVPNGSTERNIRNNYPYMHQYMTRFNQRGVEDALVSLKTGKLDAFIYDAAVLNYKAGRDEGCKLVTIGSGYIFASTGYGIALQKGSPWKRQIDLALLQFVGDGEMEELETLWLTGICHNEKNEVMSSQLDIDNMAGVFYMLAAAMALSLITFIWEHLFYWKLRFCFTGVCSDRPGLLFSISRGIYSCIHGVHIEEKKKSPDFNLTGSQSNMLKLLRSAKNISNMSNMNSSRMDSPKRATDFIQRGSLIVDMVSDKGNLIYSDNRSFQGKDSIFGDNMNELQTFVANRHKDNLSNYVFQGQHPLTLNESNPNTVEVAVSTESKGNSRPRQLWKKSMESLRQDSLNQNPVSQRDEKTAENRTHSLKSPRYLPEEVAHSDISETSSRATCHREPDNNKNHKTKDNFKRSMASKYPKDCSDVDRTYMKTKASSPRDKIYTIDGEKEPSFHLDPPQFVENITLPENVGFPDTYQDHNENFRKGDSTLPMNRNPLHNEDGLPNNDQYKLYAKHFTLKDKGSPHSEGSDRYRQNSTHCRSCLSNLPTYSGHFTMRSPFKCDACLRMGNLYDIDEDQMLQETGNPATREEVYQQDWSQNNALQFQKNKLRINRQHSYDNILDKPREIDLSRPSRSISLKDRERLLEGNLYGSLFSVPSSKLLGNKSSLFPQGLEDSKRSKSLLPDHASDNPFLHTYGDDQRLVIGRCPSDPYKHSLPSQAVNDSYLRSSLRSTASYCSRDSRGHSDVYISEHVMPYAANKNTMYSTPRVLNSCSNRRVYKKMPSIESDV

CCOC(=O)c1c(NC(=O)CC2SC(=N)NC2=O)sc2c1CCC(C)C2 (stereo not shown) [EU1794-2, ethyl 2-(2-(2-imino-4-oxothiazolidin-5-yl)acetamido)-6-methyl-4,5,6,7-tetrahydrobenzo[b]thiophene-3-carboxylate]
IC50 (GluN1/GluN2A NMDARs; [1]): 2.5 µM
IC50 (GluN1/GluN2A NMDARs; [2]): 3.6 µM
IC50 (GluN1/GluN2A NMDARs; [3]): 8 µM
IC50 (GluN1/GluN2A NMDARs; [4]): 0.6 µM
EC50 (GluN1/GluN2A NMDARs; [5]): 0.6 µM
Emax (GluN1/GluN2A NMDARs; [6]): 6%
EC50 (GluN1/GluN2A NMDARs; [7]): 1.8 µM
Emax (GluN1/GluN2A NMDARs; [7]): 37%
IC50 (GluN1/GluN2B NMDARs; +EU1794-27 10 µM, glutamate/glycine 100/30 µM, read-out: EU1794-2 IC50 (µM) [conf. int.]): 3.5 µM
IC50 (GluN1/GluN2B NMDARs; +EU1794-27 20 µM, glutamate/glycine 100/30 µM, read-out: EU1794-2 IC50 (µM) [conf. int.]): 12 µM
IC50 (GluN1/GluN2B NMDARs; read-out: IC50 (µM) [conf. int.]): 1.2 µM
EC50 (GluN1/GluN2B NMDARs; [5]): 1.2 µM
Emax (GluN1/GluN2B NMDARs; [6]): 10%
EC50 (GluN1/GluN2B NMDARs; [7]): 1.4 µM
Emax (GluN1/GluN2B NMDARs; [7]): 28%
Modulation by 10 µM (% of control) (GluN1/GluN2C NMDARs; Glu/Gly 0.6/0.2 µM (sub-saturating)): 43 ± 2.1 % of control
Modulation by 10 µM (% of control) (GluN1/GluN2C NMDARs; Glu/Gly 100/30 µM): 16 ± 1.0 % of control
IC50 (GluN1/GluN2C NMDARs; [1]): 1.2 µM
IC50 (GluN1/GluN2C NMDARs; [2]): 2.4 µM
IC50 (GluN1/GluN2C NMDARs; [3]): 6 µM
IC50 (GluN1/GluN2C NMDARs; [4]): 0.21 µM
EC50 (GluN1/GluN2C NMDARs; saturating glutamate/glycine 100/30 µM, mean [95% CI]): 0.26 µM
Emax (GluN1/GluN2C NMDARs; [6]): 14%
EC50 (GluN1/GluN2C NMDARs; [7]): 0.72 µM
Emax (GluN1/GluN2C NMDARs; [7]): 41%
kon (GluN1/GluN2D NMDARs; HEK293, read-out: association rate kon): 430000 M⁻¹ s⁻¹
koff (GluN1/GluN2D NMDARs; HEK293, read-out: dissociation rate koff): 0.495 s⁻¹
Kd (GluN1/GluN2D NMDARs; calculated from association and dissociation rates, HEK cells, read-out: kinetically-determined affinity constant Kd): 1100 nM and 1140 nM
